# Key:
# [1] = tested on: human cystic echinococcosis (CE); settings: ref Gottstein et al., 2015; Hemphill et al., 2014; cited from earlier work
# EgSERT [2] = target: T1, EgSERT (Echinococcus granulosus, UniProt W6UF91); format: cell-based; settings: 50 nM radiolabeled substrate, 10 min, room temperature, COS-7 cells
# EgSERT [3] = target: T1, EgSERT; format: cell-based; settings: at around 1 μM
# S. mansoni miracidia = settings: exogenously added, 50 μM; ref Taft et al., 2010; cited from earlier work
# [4] = tested on: protoscoleces of E. granulosus; settings: 100 μM; ref Camicia et al., 2013; Herz and Brehm, 2021; cited from earlier work
# [5] = tested on: E. multilocularis metacestode vesicles and primary cells; settings: ref Herz and Brehm (2021), cited from earlier work
# EgSERT [6] = target: T1, EgSERT; format: cell-based; settings: COS-7 cells, 15 nM – 10 μM serotonin, 10 min
structure (smiles),measurement,setting,value
"CCCSc1ccc2nc(NC(=O)OC)[nH]c2c1 [ABZ, albendazole]",share of CE cases in which treatment is ineffective,[1],~ 40%
NCCCC(=O)O [GABA],transport of radiolabeled substrate by EgSERT compared with background,EgSERT [2],does not transport
CN(C)CCCC1(c2ccc(F)cc2)OCc2cc(C#N)ccc21 (stereo not drawn) [citalopram],inhibition of serotonin transport by EgSERT,EgSERT [3],almost complete inhibition
same,effect on miracidial transformation rates,S. mansoni miracidia,detrimental effect
same,effect on motility and development of protoscoleces,[4],strong inhibitory effect
NCCc1ccc(O)c(O)c1 [dopamine],transport of radiolabeled substrate by EgSERT compared with background,EgSERT [2],does not transport
"N[C@@H](CCC(=O)O)C(=O)O [glutamate, glutamic acid]",transport of radiolabeled substrate by EgSERT compared with background,EgSERT [2],does not transport
NCC(=O)O [glycine],transport of radiolabeled substrate by EgSERT compared with background,EgSERT [2],does not transport
Fc1ccc([C@@H]2CCNC[C@H]2COc2ccc3c(c2)OCO3)cc1 [paroxetine],metacestode vesicle damage and viability of primary cell culture,[5]; 100 μM,significant metacestode vesicle damage and cell viability reduction
"NCCc1c[nH]c2ccc(O)cc12 [serotonin, 5-hydroxytryptamine]",transport of radiolabeled substrate by EgSERT compared with background,EgSERT [2],significantly higher accumulation
same,metacestode vesicle formation and cell proliferation from primary cells,"[5]; exogenous, dose dependent",induces metacestode vesicle formation and cell proliferation
same,Vmax of serotonin uptake,EgSERT [6],615 ± 33 fmol/min/well
